Assay results published in PubChem BioAssay AID977609 (Broad Institute, 2014).
Activity calls are given as the source filed them.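 The calls were made as follows: active = a rise in signal, meaning less cAMP, whose fitted curve reaches 40% at or below the top valid tested dose; inconclusive = flat fit between 30% and 70%, or a poor fit; inactive = the rest.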

Test system: Drosophila melanogaster bursicon receptor LGR2 (rickets)
Assay: bursicon receptor inhibitors, cAMP readout – cell-based, HEK293 transfected, TR-FRET cAMP, dry powder, orthogonal assay for LGR2 antagonist project, dose response (AID 977609)
Details: bursicon-stimulated cAMP, Lance TR-FRET

AC40	SMILES
1380 nM	C[C@H]1CCCCO[C@@H](CN(C)C(=O)Nc2ccc(F)cc2)[C@@H](C)CN([C@@H](C)CO)C(=O)c2cc(NC(=O)C3CCCCC3)ccc2O1
2160 nM	C[C@H]1CCCCO[C@@H](CN(C)C(=O)Nc2ccc(C(F)(F)F)cc2)[C@@H](C)CN([C@@H](C)CO)C(=O)c2cc(NC(=O)CCC(F)(F)F)ccc2O1
2890 nM	C[C@H](CO)N1C[C@H](C)[C@H](CN(C)C(=O)Nc2ccc(F)cc2)OCCCC[C@H](C)Oc2ccc(NC(=O)Nc3ccccc3)cc2C1=O
1950 nM	C[C@H](CO)N1C[C@H](C)[C@H](CN(C)C(=O)Nc2cccc3ccccc23)OCCCC[C@H](C)Oc2ccc(NC(=O)CCC(F)(F)F)cc2C1=O
2490 nM	C[C@H](CO)N1C[C@H](C)[C@H](CN(C)C(=O)Nc2cccc3ccccc23)OCCCC[C@H](C)Oc2ccc(NC(=O)c3ccccc3)cc2C1=O
248 nM	C[C@H](CO)N1C[C@H](C)[C@H](CN(C)C(=O)Nc2ccc(F)cc2)OCCCC[C@H](C)Oc2ccc(NC(=O)C3CCCCCC3)cc2C1=O
> 50000 nM (inactive)	C[C@@H]1CN([C@H](C)CO)C(=O)c2cc(NC(=O)C3CCCCC3)ccc2O[C@@H](C)CCCCO[C@@H]1CN(C)C(=O)Nc1cccc2ccccc12
2040 nM	COc1ccc(NC(=O)N(C)C[C@@H]2OCCCC[C@H](C)Oc3ccc(NC(=O)NC4CCCCC4)cc3C(=O)N([C@H](C)CO)C[C@@H]2C)cc1
1480 nM	COc1ccc(NC(=O)N(C)C[C@@H]2OCCCC[C@H](C)Oc3ccc(NC(=O)C4CCCCC4)cc3C(=O)N([C@H](C)CO)C[C@@H]2C)cc1
5490 nM	C[C@H](CO)N1C[C@H](C)[C@H](CN(C)C(=O)Nc2ccc3c(c2)OCO3)OCCCC[C@H](C)Oc2ccc(NC(=O)NC3CCCCC3)cc2C1=O
> 50000 nM (inactive)	C[C@@H]1CCCCO[C@H](CN(C)C(=O)Nc2cccc3ccccc23)[C@@H](C)CN([C@@H](C)CO)C(=O)c2cc(NC(=O)C3CCCCC3)ccc2O1
7540 nM	C[C@H](CO)N1C[C@H](C)[C@H](CN(C)C(=O)Nc2ccccc2)OCCCC[C@H](C)Oc2ccc(NC(=O)Nc3ccc4c(c3)OCO4)cc2C1=O
837 nM	C[C@H](CO)N1C[C@H](C)[C@H](CN(C)C(=O)Nc2ccc3c(c2)OCO3)OCCCC[C@H](C)Oc2ccc(NC(=O)C3CCCCC3)cc2C1=O
4690 nM	C[C@H](CO)N1C[C@H](C)[C@H](CN(C)C(=O)Nc2ccc(F)cc2)OCCCC[C@H](C)Oc2ccc(NC(=O)Nc3ccc(F)cc3)cc2C1=O
515 nM	C[C@H](CO)N1C[C@H](C)[C@H](CN(C)C(=O)Nc2ccccc2F)OCCCC[C@H](C)Oc2ccc(NC(=O)C3CCCCC3)cc2C1=O
353 nM	C[C@H]1CCCCO[C@@H](CN(C)C(=O)Nc2cccc3ccccc23)[C@@H](C)CN([C@@H](C)CO)C(=O)c2cc(NC(=O)C3CCCCC3)ccc2O1
> 50000 nM (inactive)	C[C@H]1CCCCO[C@H](CN(C)C(=O)Nc2cccc3ccccc23)[C@@H](C)CN([C@@H](C)CO)C(=O)c2cc(NC(=O)C3CCCCC3)ccc2O1
> 50000 nM (inactive)	COc1ccc(S(=O)(=O)N(C)C[C@@H]2OCCCC[C@H](C)Oc3ccc(NS(=O)(=O)c4ccc(F)cc4)cc3C(=O)N([C@@H](C)CO)C[C@@H]2C)cc1
> 50000 nM (inactive)	C[C@@H]1CN([C@H](C)CO)C(=O)c2cc(NC(=O)C3CCCCC3)ccc2O[C@@H](C)CCCCO[C@H]1CN(C)C(=O)Nc1cccc2ccccc12
> 50000 nM (inactive)	C[C@@H]1CCCCO[C@H](CN(C)C(=O)Nc2cccc3ccccc23)[C@@H](C)CN([C@H](C)CO)C(=O)c2cc(NC(=O)C3CCCCC3)ccc2O1
> 50000 nM (inactive)	C[C@@H]1CN([C@@H](C)CO)C(=O)c2cc(NC(=O)C3CCCCC3)ccc2O[C@@H](C)CCCCO[C@H]1CN(C)C(=O)Nc1cccc2ccccc12
3790 nM	C[C@H]1CCCCO[C@@H](CN(C)C(=O)Nc2ccc3c(c2)OCO3)[C@@H](C)CN([C@@H](C)CO)C(=O)c2cc(NC(=O)NC3CCCCC3)ccc2O1
25000 nM	C[C@H](CO)N1C[C@H](C)[C@H](CN(C)C(=O)Nc2ccc(F)cc2)OCCCC[C@H](C)Oc2ccc(NC(=O)C3CCOCC3)cc2C1=O
3220 nM	C[C@H](CO)N1C[C@H](C)[C@H](CN(C)C(=O)Nc2ccccc2)OCCCC[C@H](C)Oc2ccc(NC(=O)NC3CCCCC3)cc2C1=O

AC40	SMILES
3580 nM	C[C@H]1CCCCO[C@@H](CN(C)C(=O)Nc2ccccc2)[C@@H](C)CN([C@@H](C)CO)C(=O)c2cc(NC(=O)NC3CCCCC3)ccc2O1
> 50000 nM (inactive)	C[C@H](CO)N1C[C@H](C)[C@@H](CN(C)C(=O)Nc2cccc3ccccc23)OCCCC[C@H](C)Oc2ccc(NC(=O)C3CCCCC3)cc2C1=O
1050 nM	Cc1ccc(NC(=O)N(C)C[C@@H]2OCCCC[C@H](C)Oc3ccc(NC(=O)C4CCCCC4)cc3C(=O)N([C@H](C)CO)C[C@@H]2C)cc1
1650 nM	C[C@H](CO)N1C[C@H](C)[C@H](CN(C)C(=O)Nc2cccc3ccccc23)OCCCC[C@H](C)Oc2ccc(NC(=O)NC3CCCCC3)cc2C1=O
> 50000 nM (inactive)	C[C@@H]1CCCCO[C@@H](CN(C)C(=O)Nc2cccc3ccccc23)[C@H](C)CN([C@@H](C)CO)C(=O)c2cc(NC(=O)C3CCCCC3)ccc2O1
501 nM	C[C@H](CO)N1C[C@H](C)[C@H](CN(C)C(=O)Nc2ccc(F)cc2)OCCCC[C@H](C)Oc2ccc(NC(=O)C3CCCCC3)cc2C1=O
129 nM	C[C@H](CO)N1C[C@H](C)[C@H](CN(C)C(=O)Nc2cccc3ccccc23)OCCCC[C@H](C)Oc2ccc(NC(=O)C3CCCCC3)cc2C1=O
> 50000 nM (inactive)	C[C@H]1CCCCO[C@@H](CN(C)S(=O)(=O)c2ccc(Cl)cc2)[C@@H](C)CN([C@@H](C)CO)C(=O)c2cc(NC(=O)NC3CCCCC3)ccc2O1
> 50000 nM (inactive)	CC(=O)Nc1ccc2c(c1)C(=O)N([C@H](C)CO)C[C@H](C)[C@H](CN(C)C(=O)Nc1ccc(F)cc1)OCCCC[C@H](C)O2
219 nM	C[C@H](CO)N1C[C@H](C)[C@H](CN(C)C(=O)Nc2ccc3ccccc3c2)OCCCC[C@H](C)Oc2ccc(NC(=O)C3CCCCC3)cc2C1=O
3910 nM	C[C@H](CO)N1C[C@H](C)[C@H](CN(C)C(=O)Nc2ccc(F)cc2)OCCCC[C@H](C)Oc2ccc(NC(=O)NC3CCCCC3)cc2C1=O
4980 nM	C[C@H](CO)N1C[C@H](C)[C@H](CN(C)C(=O)Nc2ccc(F)cc2)OCCCC[C@H](C)Oc2ccc(NC(=O)C3CCC3)cc2C1=O
736 nM	C[C@H](CO)N1C[C@H](C)[C@H](CN(C)C(=O)Nc2ccccc2)OCCCC[C@H](C)Oc2ccc(NC(=O)C3CCCCC3)cc2C1=O
949 nM	C[C@H](CO)N1C[C@H](C)[C@H](CN(C)C(=O)Nc2ccc(C(F)(F)F)cc2)OCCCC[C@H](C)Oc2ccc(NC(=O)CCC(F)(F)F)cc2C1=O
5860 nM	C[C@H](CO)N1C[C@H](C)[C@H](CN(C)C(=O)Nc2ccccc2)OCCCC[C@H](C)Oc2ccc(NC(=O)Nc3ccccc3)cc2C1=O
1750 nM	C[C@H](CO)N1C[C@H](C)[C@H](CN(C)C(=O)Nc2ccc(F)cc2)OCCCC[C@H](C)Oc2ccc(NC(=O)C3CCCC3)cc2C1=O
858 nM	C[C@H](CO)N1C[C@H](C)[C@H](CN(C)C(=O)Nc2cccc(F)c2)OCCCC[C@H](C)Oc2ccc(NC(=O)C3CCCCC3)cc2C1=O
1530 nM	C[C@H](CO)N1C[C@H](C)[C@H](CN(C)C(=O)Nc2ccccc2)OCCCC[C@H](C)Oc2ccc(NC(=O)CCC(F)(F)F)cc2C1=O
> 50000 nM (inactive)	C[C@@H]1CCCCO[C@@H](CN(C)C(=O)Nc2cccc3ccccc23)[C@@H](C)CN([C@@H](C)CO)C(=O)c2cc(NC(=O)C3CCCCC3)ccc2O1
49600 nM	C[C@H](CO)N1C[C@H](C)[C@H](CN(C)C(=O)Nc2ccc(F)cc2)OCCCC[C@H](C)Oc2ccc(NC(=O)C3CC3)cc2C1=O
> 50000 nM (inactive)	C[C@@H]1CCCCO[C@H](CN(C)C(=O)Nc2cccc3ccccc23)[C@H](C)CN([C@H](C)CO)C(=O)c2cc(NC(=O)C3CCCCC3)ccc2O1
2710 nM	C[C@H](CO)N1C[C@H](C)[C@H](CN(C)C(=O)Nc2ccc(C(F)(F)F)cc2)OCCCC[C@H](C)Oc2ccc(NC(=O)NC3CCCCC3)cc2C1=O
853 nM	C[C@H](CO)N1C[C@H](C)[C@H](CN(C)C(=O)Nc2ccc(Cl)cc2)OCCCC[C@H](C)Oc2ccc(NC(=O)C3CCCCC3)cc2C1=O

Same assay, conditions: bursicon-stimulated cAMP, Lance TR-FRET, at 50 µM (top of the series)

inhibition of cAMP	SMILES
9.18% (inactive)	CC(C)(C)c1ccc(-c2nc(-c3ccncc3)no2)cc1
-2.89% (inactive)	C[C@@H]1CCCCO[C@@H](CN(C)C(=O)Nc2cccc3ccccc23)[C@@H](C)CN([C@H](C)CO)C(=O)c2cc(NC(=O)C3CCCCC3)ccc2O1
-5.85% (inactive)	C[C@@H]1CCCCO[C@@H](CN(C)C(=O)Nc2cccc3ccccc23)[C@H](C)CN([C@H](C)CO)C(=O)c2cc(NC(=O)C3CCCCC3)ccc2O1
10.1% (inactive)	C[C@@H]1CN([C@@H](C)CO)C(=O)c2cc(NC(=O)C3CCCCC3)ccc2O[C@@H](C)CCCCO[C@@H]1CN(C)C(=O)Nc1cccc2ccccc12
6.28% (inactive)	COc1ccc(S(=O)(=O)N(C)C[C@@H]2OCCCC[C@H](C)Oc3ccc(NS(=O)(=O)c4ccc(Cl)cc4)cc3C(=O)N([C@@H](C)CO)C[C@@H]2C)cc1
16% (inactive)	C[C@@H]1CCCCO[C@H](CN(C)C(=O)Nc2cccc3ccccc23)[C@H](C)CN([C@@H](C)CO)C(=O)c2cc(NC(=O)C3CCCCC3)ccc2O1
